Source: ChEMBL document CHEMBL1135523, “(4R,5S)/(4S,5R)-4,5-Bis(4-hydroxyphenyl)-2-imidazolines: ligands for the estrogen receptor with a novel binding mode” (J Med Chem, 2002)

Columns and labels:
[1] = biological target: Estrogen receptor (Bos taurus) (UniProt Q9XSB5+P49884); test: Displacement of 17-beta-[3H]-estradiol from Estrogen receptor of calf uterine cytosol at 20 uM; assay type: protein assay
Estrogen receptor = biological target: T1, Estrogen receptor (Homo sapiens, UniProt P03372); test: Agonist activity in transcriptional activation assay in MCF-7-2a cells compared to estradiol E2; assay type: functional, cell-based
T1 sequence (P03372 whole entry): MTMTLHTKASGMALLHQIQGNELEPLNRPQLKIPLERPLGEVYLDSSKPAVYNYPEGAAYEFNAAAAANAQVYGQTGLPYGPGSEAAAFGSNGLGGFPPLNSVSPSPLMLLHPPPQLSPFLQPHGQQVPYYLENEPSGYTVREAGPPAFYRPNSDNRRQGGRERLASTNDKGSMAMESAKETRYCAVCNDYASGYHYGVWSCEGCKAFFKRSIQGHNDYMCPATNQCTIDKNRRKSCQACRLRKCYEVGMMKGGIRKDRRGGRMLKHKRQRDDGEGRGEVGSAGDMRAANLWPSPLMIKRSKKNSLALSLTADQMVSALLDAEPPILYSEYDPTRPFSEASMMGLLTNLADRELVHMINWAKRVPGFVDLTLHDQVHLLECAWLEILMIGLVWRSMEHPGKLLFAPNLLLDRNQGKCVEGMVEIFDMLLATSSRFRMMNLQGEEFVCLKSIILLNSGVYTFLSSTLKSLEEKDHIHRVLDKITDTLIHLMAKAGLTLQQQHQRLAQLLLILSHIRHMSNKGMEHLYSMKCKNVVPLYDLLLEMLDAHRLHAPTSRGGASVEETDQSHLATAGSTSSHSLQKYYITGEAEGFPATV

Q: With `Cc1cc(O)ccc1[C@H]1N=CN[C@H]1c1ccc(O)cc1C` as the compound, how does the Control [1] read?
A: 0%

Q: `Oc1ccc([C@H]2N=CN[C@H]2c2ccc(O)cc2I)c(I)c1` was tested. Which Control [1] did it give?
A: 42.9%

Q: And the EC50 (Estrogen receptor)?
A: 1800 nM

Q: `Oc1ccc([C@H]2N=CN[C@H]2c2ccc(O)cc2)cc1` was tested. Which Control [1] did it give?
A: 1.7%

Q: How did the Control [1] turn out when `Oc1ccc([C@@H]2N=CN[C@@H]2c2c(Cl)cc(O)cc2Cl)c(Cl)c1` was run?
A: 70.3%

Q: And the EC50 (Estrogen receptor)?
A: 65 nM

Q: For `Oc1ccc([C@H]2NC=N[C@H]2c2ccc(O)cc2Cl)c(Cl)c1`, which Control [1] is on record?
A: 44%

Q: What about the EC50 (Estrogen receptor) of the same compound?
A: 380 nM

Q: How did the Control [1] turn out when `Oc1ccc([C@H]2N=CN[C@H]2c2ccc(O)cc2F)c(F)c1` was run?
A: 20.9%

Q: For `Oc1ccc([C@@H]2N=CN[C@@H]2c2c(Cl)cc(O)cc2Cl)c(F)c1`, which Control [1] is on record?
A: 40.1%

Q: What about the EC50 (Estrogen receptor) of the same compound?
A: 620 nM
